PubChem BioAssay (NCI)
Where “and” joins values, the source holds several entries; their conditions need not be identical. Identical values can stand only once.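 Five concentrations, 48 hours, 96-well plates. GI50 marks 50% less growth. The concentration for full growth arrest is given as TGI.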

What was measured:
Assay in all cases: DTP human tumour cell line panel, 48 h
[1] = test system: BT-549 breast
[2] = test system: HOP-92 NSCLC
[3] = test system: NCI-H226 lung
[4] = test system: NCI-H23 lung
[5] = test system: UACC-257 melanoma
[6] = test system: A498 renal
[7] = test system: CAKI-1 renal
[8] = test system: DU-145 prostate
[9] = test system: MDA-MB-435
[10] = test system: NCI-H460 lung
[11] = test system: OVCAR-4 ovarian
[12] = test system: OVCAR-8 ovarian
[13] = test system: PC-3 prostate
[14] = test system: SF-539 CNS
[15] = test system: SK-OV-3 ovarian
[16] = test system: SNB-75 CNS
[17] = test system: SW-620 colon
[18] = test system: UACC-62 melanoma
[19] = test system: UO-31 renal
[20] = test system: 786-0 renal
[21] = test system: ACHN renal
[22] = test system: CCRF-CEM leukemia
[23] = test system: COLO 205 colon
[24] = test system: HCC-2998 colon
[25] = test system: HCT-116 colon
[26] = test system: HCT-15 colon
[27] = test system: HL-60(TB) leukemia
[28] = test system: HT29 colon
[29] = test system: IGROV1 ovarian
[30] = test system: KM12 colon
[31] = test system: M14 melanoma
[32] = test system: MALME-3M melanoma
[33] = test system: MDA-MB-231 breast
[34] = test system: NCI-H522 lung
[35] = test system: NCI/ADR-RES ovarian
[36] = test system: OVCAR-3 ovarian
[37] = test system: OVCAR-5 ovarian
[38] = test system: RPMI-8226 leukemia
[39] = test system: RXF 393 renal
[40] = test system: SF-268 CNS
[41] = test system: SF-295 CNS
[42] = test system: SK-MEL-2 melanoma
[43] = test system: SK-MEL-28 melanoma
[44] = test system: SK-MEL-5 melanoma
[45] = test system: SN12C renal

Compound: COc1ccc(CC2C(=O)NC(C)C(=O)N(C)C3C(=O)N(C)C(Cc4ccc(O)c(c4)Oc4ccc(cc4)C3O)C(=O)NC(C)C(=O)NC(C)C(=O)N2C)cc1 (stereo not drawn) (tested in a mixture with another compound)
- TGI [1]: 9.92 nM
- TGI [2]: 37.2 nM
- TGI [3]: 117 nM
- TGI [4]: 51 nM
- TGI [5]: 101 nM and 27.8 nM

Compound: C=C(CNCCc1ccc(O)cc1)[C@@H]1CC[C@]2(CO)CC[C@]3(C)[C@H](CC[C@@H]4[C@@]5(C)CCC(NCCc6ccc(O)cc6)C(C)(C)[C@@H]5CC[C@]43C)[C@@H]12 (stereo partly drawn)
- GI50 [6]: 1400 nM
- TGI [6]: 2860 nM
- GI50 [1]: 1590 nM
- TGI [1]: 3060 nM
- GI50 [7]: 1490 nM
- TGI [7]: 2850 nM
- GI50 [8]: 1540 nM
- TGI [8]: 3000 nM
- GI50 [2]: 667 nM
- TGI [2]: 2180 nM
- GI50 [9]: 873 nM
- TGI [9]: 2240 nM
- GI50 [10]: 191 nM
- TGI [10]: 362 nM
- GI50 [11]: 1350 nM
- TGI [11]: 2700 nM
- GI50 [12]: 1610 nM
- TGI [12]: 4270 nM
- GI50 [13]: 884 nM
- TGI [13]: 2350 nM
- GI50 [14]: 1310 nM
- TGI [14]: 2600 nM
- GI50 [15]: 1770 nM
- TGI [15]: 3260 nM
- GI50 [16]: 1250 nM
- TGI [16]: 2540 nM
- GI50 [17]: 178 nM
- TGI [17]: 352 nM
- GI50 [18]: 1720 nM
- TGI [18]: 3260 nM
- GI50 [19]: 1160 nM
- TGI [19]: 2440 nM

Compound: O=c1c2cc(F)ccc2sc2c(Nc3ccncc3)nc3ccccc3c12
- GI50 [20]: 1760 nM
- TGI [20]: 3390 nM
- GI50 [6]: 1040 nM
- TGI [6]: 2640 nM
- GI50 [21]: 1550 nM
- TGI [21]: 3130 nM
- GI50 [1]: 3310 nM
- TGI [1]: 16700 nM
- GI50 [7]: 1530 nM
- TGI [7]: 3840 nM
- GI50 [22]: 860 nM
- TGI [22]: 2920 nM
- GI50 [23]: 1700 nM
- TGI [23]: 3940 nM
- GI50 [8]: 2490 nM
- TGI [8]: 6270 nM
- GI50 [24]: 2670 nM
- TGI [24]: 7970 nM
- GI50 [25]: 1450 nM
- TGI [25]: 3130 nM
- GI50 [26]: 1650 nM
- TGI [26]: 3320 nM
- GI50 [27]: 13700 nM
- TGI [27]: 39800 nM
- GI50 [28]: 1880 nM
- TGI [28]: 3730 nM
- GI50 [29]: 1550 nM
- TGI [29]: 5550 nM
- GI50 [30]: 1870 nM
- TGI [30]: 3930 nM
- GI50 [31]: 1570 nM
- TGI [31]: 3010 nM
- GI50 [32]: 1740 nM
- TGI [32]: 3420 nM
- GI50 [33]: 1300 nM
- TGI [33]: 2670 nM
- GI50 [9]: 1900 nM
- TGI [9]: 3670 nM
- GI50 [3]: 14500 nM
- TGI [3]: 47800 nM
- GI50 [4]: 1710 nM
- TGI [4]: 3800 nM
- GI50 [10]: 1770 nM
- TGI [10]: 3620 nM
- GI50 [34]: 1910 nM
- TGI [34]: 4820 nM
- GI50 [35]: 1940 nM
- TGI [35]: 4470 nM
- GI50 [36]: 1840 nM
- TGI [36]: 3880 nM
- GI50 [11]: 1700 nM
- TGI [11]: 3530 nM
- GI50 [37]: 1660 nM
- TGI [37]: 3110 nM
- GI50 [12]: 1780 nM
- TGI [12]: 4250 nM
- GI50 [38]: 1750 nM
- TGI [38]: 4430 nM
- GI50 [39]: 1700 nM
- TGI [39]: 3410 nM
- GI50 [40]: 1910 nM
- TGI [40]: 4560 nM
- GI50 [41]: 4120 nM
- TGI [41]: 26700 nM
- GI50 [14]: 1720 nM
- TGI [14]: 3290 nM
- GI50 [42]: 11200 nM
- TGI [42]: 26500 nM
- GI50 [43]: 1990 nM
- TGI [43]: 3840 nM
- GI50 [44]: 7290 nM
- TGI [44]: 28200 nM
- GI50 [15]: 14200 nM
- TGI [15]: 34400 nM
- GI50 [45]: 2160 nM
- TGI [45]: 5930 nM
- GI50 [16]: 1100 nM
- TGI [16]: 3640 nM
- GI50 [17]: 1500 nM
- TGI [17]: 3160 nM
- GI50 [5]: 2340 nM
- TGI [5]: 6170 nM
- GI50 [18]: 1790 nM
- TGI [18]: 3740 nM
- GI50 [19]: 1110 nM
- TGI [19]: 2500 nM
